From publication PMC10318456, “Selective inhibitors of the PSEN1–gamma-secretase complex” (The Journal of Biological Chemistry, 2023)
Values joined by “and” are separate entries in the source; they are usually repeats but may differ in a detail not shown here. Equal entries are not always repeated.

Key:
[1] = system: PSEN1 versus PSEN2 γ-secretase complexes; test: Comparison of the four MEF cell lines: selectivity between γ-secretase complexes (IC50 ratios); assay type: cell-based, human
Description: Mouse embryonic fibroblast (MEF) cells deficient for the Psen and Aph1 genes (Psen1/2^−/−, Aph1ABC^−/−) were reconstituted with human PSEN1 or PSEN2 and with human APH1A or APH1B to generate four independent cell lines, each constitutively expressing exclusively one type of γ-secretase complex (Fig. S1A) ([19]). A human APP-C99-GFP reporter was introduced to enable the measurement of Aβ peptides in the conditioned media of the cells to monitor γ-secretase activity. The assay was established in a 96-well format.
GraphPad Prism 7 software was used to generate inhibition fitting curves (four-parameter logistic equation, nonlinear regression) and to determine IC50 and 95% CI values (Fig. S2). Selectivity values (IC50 ratios of PSEN1 versus PSEN2) above 10 are highlighted in red.
The number of plated cells and incubation times were determined in respect to linearity of Aβ peptide secretion, the dynamic range of Aβ peptide quantification in the medium, and sensitivity to dimethylsulfoxide (DMSO). […] MEF cells were plated in DMEM F12 supplemented with 10% FCS at 10,000 cells per well in 96-well clear bottom plates in the late afternoon and cultured for 16 h at 37 °C, 5% CO2. In the morning of the second day, the medium was replaced with 60 μl of DMEM/F12 supplemented with 2% FCS, and GSI or DMSO (controls) were added. Compounds were tested in serial dilutions with concentrations ranging from […] to 0.1 nM with 3-fold changes. The final concentration of DMSO in all wells was 0.2%. Plates were put in the incubator again at 37 °C, 5% CO2. After 8 h, the culture media were collected, and 30 μl was used to measure Aβ40 peptides. The cell viability was assessed using the CellTiter-Glo Luminescent assay (Promega) that measures ATP production. All screens were performed at one site, and reported IC50 values throughout the manuscript are from this site (Beerse) unless otherwise indicated.
GraphPad Prism 7 software (https://www.graphpad.com) was used to generate inhibition fitting curves (four-parameter logistic equation, nonlinear regression) and to determine IC50 values and 95% CI.

[2] = target: T1, PSEN1 L150A–APH1A γ-secretase complex (Homo sapiens, UniProt P49768, L150A); test: Aβ40 secretion, MEF cell pool restored with PSEN1 L150A–APH1A; assay type: cell-based; conditions: decimal comma; for IC50: PSEN1 L150A (TM2)–APH1A cell pool, N = 3 to 4, mean (95% CI)
T1 construct: expressed in transfected cells; host or cells: Psen1/2 double KO/Aph1ABC triple KO MEFs, pools without clonal selection
Procedure: (§1) We turned to experimental site–directed mutagenesis and selected a series of amino acids (Fig. 3) in the entrance channel for mutation to alanine. […] More importantly, they were all enzymatically active as shown by the secretion of Aβ40 in the supernatants of the cell cultures (Fig. 3B).
(§2) Conditional Psen1/2 double KO mice were crossed with conditional Aph1ABC triple KO mice ([29], [52], [58], [59]). At embryonic day 7.5, embryos were dissected and dissociated, and cells were plated in the presence of Dulbecco’s modified Eagle’s medium (DMEM)/F12 50% fetal calf serum (FCS) (Invitrogen). Primary MEFs were immortalized by transduction with LargeT antigen. Psen1/2 double KO/Aph1ABC triple KO MEFs were generated by transduction with a Cre-GFP–expressing adenoviral vector, and GFP-positive MEFs were sorted by fluorescence-activated cell sorting analysis. Psen1/2 Aph1ABC-deficient MEFs were maintained in DMEM/f12 10% FCS. To rescue γ-secretase expression, Psen1/2 double KO/Aph1ABC triple KO MEFs were transduced using Murine Stem Cell Virus retroviral vector system (pMSCV) viral vectors (Clontech) containing the human coding sequences of the different PSEN and APH1 homologs and the zeocin selection marker. An Internal Ribosome Entry Site sequence was cloned between the coding sequences for PSEN and APH1 to ensure co-expression of both proteins. Stable transfected cell lines were selected using 500-μg/ml zeocin (Invitrogen). Four different combinations were made: PSEN1 and APH1AL, PSEN1 and APH1B, PSEN2 and APH1AL, and PSEN2 and APH1B. These cell lines were transduced with pMSCV viral vectors (Clontech) expressing APP-C99-GFP-puromycin. […]
(§3) The number of plated cells and incubation times were determined in respect to linearity of Aβ peptide secretion, the dynamic range of Aβ peptide quantification in the medium, and sensitivity to dimethylsulfoxide (DMSO). […] The cell viability was assessed using the CellTiter-Glo Luminescent assay (Promega) that measures ATP production. […] We however measured five compounds at the Leuven site and noticed that absolute IC50 values were different (Fig. S2). […]

[3] = target: T2, PSEN1 L166A–APH1A γ-secretase complex (Homo sapiens, UniProt P49768, L166A); test: Aβ40 secretion, MEF cell pool restored with PSEN1 L166A–APH1A; assay type: cell-based; conditions: PSEN1 L166A (TM3)–APH1A cell pool; N = 3 to 4; mean (95% CI); decimal comma
T2 construct: expressed in transfected cells; host or cells: Psen1/2 double KO/Aph1ABC triple KO MEFs, pools without clonal selection
Procedure: as §1
Conditional Psen1/2 double KO mice were crossed with conditional Aph1ABC triple KO mice ([29], [52], [58], [59]). At embryonic day 7.5, embryos were dissected and dissociated, and cells were plated in the presence of Dulbecco’s modified Eagle’s medium (DMEM)/F12 50% fetal calf serum (FCS) (Invitrogen). Primary MEFs were immortalized by transduction with LargeT antigen. Psen1/2 double KO/Aph1ABC triple KO MEFs were generated by transduction with a Cre-GFP–expressing adenoviral vector, and GFP-positive MEFs were sorted by fluorescence-activated cell sorting analysis. Psen1/2 Aph1ABC-deficient MEFs were maintained in DMEM/f12 10% FCS. […]
as §3

[4] = target: T3, PSEN1 F388A–APH1A γ-secretase complex (Homo sapiens, UniProt P49768, F388A); test: Aβ40 secretion, MEF cell pool restored with PSEN1 F388A–APH1A; assay type: cell-based; conditions: decimal comma; for IC50: PSEN1 F388A (TM7)–APH1A cell pool, N = 3 to 4, mean (95% CI)
T3 construct: expressed in transfected cells; host or cells: Psen1/2 double KO/Aph1ABC triple KO MEFs, pools without clonal selection
Procedure: as §1, §2, §3

`O=S(=O)(c1ccc(Cl)cc1)N1[C@H]2CC[C@@H]([C@H]1c1ccc(C(F)(F)F)cc1)[C@@H](O)C2` [(+)-9b] was tested, and the “selectivity for PSEN1 complexes versus PSEN2 complexes” value ([1]; IC50 ratios of PSEN1 versus PSEN2, MEF cell lines) was > 250 fold, the “selectivity PSEN1–APH1B versus PSEN1–APH1A” value ([1]; MEF cell lines) was 4 fold and the IC50 [2] was 1.09 µM. It also gave an IC50 [3] of 0.642 µM and an IC50 [4] of 0.403 µM.
`C[C@H](NC(=O)Cc1cc(F)cc(F)c1)C(=O)N[C@H](C(=O)OC(C)(C)C)c1ccccc1` [DAPT] was tested, and the “selectivity toward the different γ-secretase complexes” value ([1]; four MEF cell lines) was < 10 fold, the IC50 [2] was 0.879 µM and the “IC50 fold change to WT” value ([2]; PSEN1 L150A–APH1A cell pool) was 5,207 fold and > 3 fold. For the same molecule, the IC50 [3] was 1.37 µM, the IC50 [4] was 0.277 µM and the “IC50 fold change to WT” value ([4]; PSEN1 F388A–APH1A cell pool) was 1,642 fold.
